Residue numbers refer to the chain shown, from its start.
Columns and labels:
Type in all cases: biochemical, murine
mCOX-2 R120Q = molecular target: T1, mCOX-2 R120Q (Mus musculus, UniProt Q05769, R106Q); test: Initial O2 uptake rate with constriction site mutant R120Q; settings: 200 nM enzyme; AA 100 μM, NAGly 200 μM
T1 construct: made in house; host or cells: Sf-9 insect cells
T1 sequence (Q05769 18-604 R106Q): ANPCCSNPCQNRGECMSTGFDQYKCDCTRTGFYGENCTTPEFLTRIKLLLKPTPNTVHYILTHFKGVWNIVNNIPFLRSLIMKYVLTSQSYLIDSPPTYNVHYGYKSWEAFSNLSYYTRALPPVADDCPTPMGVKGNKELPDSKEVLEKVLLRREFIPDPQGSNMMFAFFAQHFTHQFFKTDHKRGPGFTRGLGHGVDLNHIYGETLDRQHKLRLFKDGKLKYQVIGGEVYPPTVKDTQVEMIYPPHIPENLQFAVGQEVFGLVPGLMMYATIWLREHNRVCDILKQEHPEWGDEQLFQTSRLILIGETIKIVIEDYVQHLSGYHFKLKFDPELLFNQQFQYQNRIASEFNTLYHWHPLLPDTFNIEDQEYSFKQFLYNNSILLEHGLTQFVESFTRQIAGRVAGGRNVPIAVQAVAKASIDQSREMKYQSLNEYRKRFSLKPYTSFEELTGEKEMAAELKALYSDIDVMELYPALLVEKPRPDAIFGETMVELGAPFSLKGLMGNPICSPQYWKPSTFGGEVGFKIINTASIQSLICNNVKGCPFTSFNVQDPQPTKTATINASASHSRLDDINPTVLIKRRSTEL
Protocol: (§1) Enzymology: COX-1 was purified from ram seminal vesicles as previously described. Site-directed mutagenesis of COX-2 was performed as described previously. Recombinant COX-2 enzymes were expressed in Sf-9 insect cells and purified by ion-exchange chromatography and gel filtration as previously described. Apo-enzymes were reconstituted with hematin prior to activity assays.
(§2) COX activity was quantified as previously described. Initial reaction velocity data were obtained from the linear portion of the oxygen uptake curves. Oxygraph data were analyzed by nonlinear regression with Enzyme Kinetics 1.5 software (Trinity Software, Campton, N.H.).
(§3) At the bottom of the substrate (and inhibitor) binding site, there is a hydrogen bonding network comprised of residues Arg-120, Tyr-355, and Glu524, that form a constriction which is present in both COX isoforms. These residues contribute to the binding of the carboxylate in both AA and NSAIDs, and the glycerol moiety of 2-AG [12,23-27].

mCOX-2 Y355F = molecular target: T2, mCOX-2 Y355F (Mus musculus, UniProt Q05769, Y341F); test: Initial O2 uptake rate with constriction site mutant Y355F; settings: 200 nM enzyme; AA 100 μM
T2 construct: made in house; host or cells: Sf-9 insect cells
T2 sequence (Q05769 18-604 Y341F): T1 sequence (Q05769 18-604 R106Q) with Q89R, Y324F
Protocol: as §1, §2, §3

mCOX-2 R513H = molecular target: T3, mCOX-2 R513H (Mus musculus, UniProt Q05769, R499H); test: Initial O2 uptake rate with side pocket mutant R513H; settings: 200 nM enzyme; AA 100 μM, NAGly 200 μM
T3 construct: made in house; host or cells: Sf-9 insect cells
T3 sequence (Q05769 18-604 R499H): T1 sequence (Q05769 18-604 R106Q) with Q89R, R482H
Protocol: as §1, §2
(§4) Previous studies have identified residues in the side pocket of COX-2, especially Arg-513, as critical determinants of 2-AG oxygenation by COX-2 [13]. […] (FIG. 5).

mCOX-2 R513H/V523I = molecular target: T4, mCOX-2 R513H/V523I (Mus musculus, UniProt Q05769, R499H/V509I); test: Initial O2 uptake rate with side pocket double mutant R513H/V523I; settings: 200 nM enzyme; AA 100 μM, NAGly 200 μM
T4 construct: made in house; host or cells: Sf-9 insect cells
T4 sequence (Q05769 18-604 R499H/V509I): T1 sequence (Q05769 18-604 R106Q) with Q89R, R482H, V492I
Protocol: as §1, §2, §4

Structure (SMILES): CCCCC/C=C\C/C=C\C/C=C\C/C=C\CCCC(=O)O [AA, arachidonic acid]
- reduction in initial rate of oxygenation compared with wild-type (mCOX-2 R120Q): < 3 fold
- reduction in initial rate of oxygenation compared with wild-type (mCOX-2 Y355F): < 3 fold
- effect of mutation on oxygenation rate (mCOX-2 R513H): did not greatly affect
- effect of mutation on oxygenation rate (mCOX-2 R513H/V523I): did not greatly affect

— US7314709B2, “Compositions and methods for detecting and quantifying COX-2 activity by lipoamino acid metabolism” (Vanderbilt University, priority 2002, dated 2008)
